The test system of this test is Lactobacillus reuteri F 275 (DSMZ 20016). As to the kind of experiment: microbe, parasite or virus in culture. To be noted: Limosilactobacillus reuteri.

The values that follow come from US20250017213A1, “COMPOSITION FOR MODULATING MICROBIAL GROWTH” (DSM AUSTRIA GMBH, priority 2021, published 2025).

Broadly, the inhibition is the relative decrease from the control value, in per cent. A high value points to strong suppression. For the molecule `O=CO` [formic, formic acid], the inhibition at […] (DSMZ20016, NCI-H125, 4 h) was determined as 23.4%; the inhibition at […] (DSMZ20016, NCI-H125, 5 h) came to 38.2%; the inhibition at […] (DSMZ20016, NCI-H125, 6 h) is 39.8%; the inhibition at […] (DSMZ20016, NCI-H125, 7 h) was 39.7%; the inhibition at […] (DSMZ20016, NCI-H125, 10 h) came to 39.5%.
